{"source": "ChEMBL document CHEMBL1146440", "about": "“Brasilidine A, a new cytotoxic isonitrile-containing indole alkaloid from the actinomycete Nocardia brasiliensis” (J Nat Prod, 1997)", "key": {"L1210": {"test_system": "L1210", "test": "Cytotoxicity against mouse L1210 cells", "assay_type": "functional, cell-based"}, "P388 [1]": {"test_system": "P388", "test": "Cytotoxicity against mouse P388 cells", "assay_type": "functional, cell-based"}, "P388 [2]": {"test_system": "P388", "test": "Cytotoxicity against mouse Adriamycin-resistant P388 cells", "assay_type": "functional, cell-based"}, "CHO [3]": {"test_system": "CHO", "test": "Cytotoxicity against CHO cells", "assay_type": "cell-based, Cavia porcellus", "conditions": "Cricetulus griseus"}, "CHO [4]": {"test_system": "CHO", "test": "Cytotoxicity against MDR1 gene transfected CHO cells", "assay_type": "ADME, cell-based, Cavia porcellus", "conditions": "Cricetulus griseus"}}, "data": [{"smiles": "COc1cccc2c1C(=O)c1c(O)c3c(c(O)c1C2=O)C[C@@](O)(C(=O)CO)C[C@@H]3O[C@H]1C[C@H](N)[C@H](O)[C@H](C)O1", "note": "[DOXORUBICIN]", "values": [{"measurement": "IC50", "setting": "L1210", "result": 0.09, "unit": "µg/mL"}, {"measurement": "IC50", "setting": "P388 [1]", "result": 0.09, "unit": "µg/mL"}, {"measurement": "IC50", "setting": "P388 [2]", "result": 0.55, "unit": "µg/mL"}, {"measurement": "IC50", "setting": "CHO [3]", "result": 0.01, "unit": "µg/mL"}, {"measurement": "IC50", "setting": "CHO [4]", "result": 0.11, "unit": "µg/mL"}]}]}
